Assay results published in ChEMBL document CHEMBL3124828, “A 2,6,9-hetero-trisubstituted purine inhibitor exhibits potent biological effects against multiple myeloma cells” (Bioorg Med Chem, 2013).
Activity calls are given as the source filed them. The calls are words filed in the database; no cut-off is given here.

Columns and labels:
[1] = Induction of apoptosis in human XG6 cells assessed as early apoptotic cells at 7.5 uM after 48 hrs by annexinV/propidium iodide staining (reference value: 8.62%); format: functional
[2] = Induction of apoptosis in human XG6 cells assessed as late apoptotic cells at 7.5 uM after 48 hrs by annexinV/propidium iodide staining (reference value: 7.78%); format: functional
[3] = Induction of apoptosis in human XG6 cells assessed as viable cells at 12.5 uM after 48 hrs by annexinV/propidium iodide staining (reference value: 83.3%); format: functional; conditions: XG6, 48 h, read-out: Activity
[4] = Induction of apoptosis in human XG6 cells assessed as early apoptotic cells at 12.5 uM after 48 hrs by annexinV/propidium iodide staining (reference value: 8.62%); format: functional
[5] = Induction of apoptosis in human XG6 cells assessed as late apoptotic cells at 12.5 uM after 48 hrs by annexinV/propidium iodide staining (reference value: 7.78%); format: functional
[6] = system: JJN-3; test: Induction of apoptosis in human JJN-3 cells assessed as early apoptotic cells at 12.5 uM after 48 hrs by annexinV/propidium iodide staining (reference value: 13.3%); format: functional
[7] = system: JJN-3; test: Induction of apoptosis in human JJN-3 cells assessed as late apoptotic cells at 12.5 uM after 48 hrs by annexinV/propidium iodide staining (reference value: 9.59%); format: functional
[8] = system: JJN-3; test: Induction of apoptosis in human JJN-3 cells assessed as viable cells at 7.5 uM after 48 hrs by annexinV/propidium iodide staining (reference value: 75.9%); format: functional; conditions: JJN-3, 48 h, read-out: Activity
[9] = system: JJN-3; test: Induction of apoptosis in human JJN-3 cells assessed as early apoptotic cells at 7.5 uM after 48 hrs by annexinV/propidium iodide staining (reference value: 13.3%); format: functional
[10] = system: JJN-3; test: Induction of apoptosis in human JJN-3 cells assessed as late apoptotic cells at 7.5 uM after 48 hrs by annexinV/propidium iodide staining (reference value: 9.59%); format: functional
[11] = system: JJN-3; test: Induction of apoptosis in human JJN-3 cells assessed as viable cells at 12.5 uM after 48 hrs by annexinV/propidium iodide staining (reference value: 75.9%); format: functional; conditions: JJN-3, 48 h, read-out: Activity
[12] = Induction of apoptosis in human XG6 cells assessed as viable cells at 7.5 uM after 48 hrs by annexinV/propidium iodide staining (reference value: 83.3%); format: functional; conditions: XG6, 48 h, read-out: Activity
[13] = target: AP2-associated protein kinase 1 (Homo sapiens) (UniProt Q2M2I8); test: Inhibition of AAK1 (unknown origin) at 2.5 uM after 20 mins
[14] = system: Tyrosine-protein kinase ABL1 (Homo sapiens), P00519 [F317L]; test: Inhibition of ABL1 F317L mutant (unknown origin) at 2.5 uM after 20 mins
[15] = target: Tyrosine-protein kinase JAK1 (Homo sapiens) (UniProt P23458); test: Inhibition of JAK1 (unknown origin) at 100 uM after 20 mins
[16] = target: Signal transducer and activator of transcription 3 (Homo sapiens) (UniProt P40763); test: Displacement of FAM-GpYLPQTV-NH2 from full-length Stat3 SH2 domain (unknown origin) up to 100 uM by fluorescence polarization
[17] = target: Signal transducer and activator of transcription 3 (Homo sapiens) (UniProt P40763); test: Displacement of FAM-GpYLPQTV-NH2 from full-length Stat3 SH2 domain (unknown origin) up to 400 uM by fluorescence polarization
[18] = system: XG6; test: Induction of apoptosis in human XG6 cells assessed as late apoptotic cells at 15 uM after 48 hrs by annexinV/propidium iodide staining; format: functional, cell-based
[19] = system: JJN-3; test: Cytotoxicity against human JJN-3 cells assessed as growth inhibition after 48 hrs by MTT assay; format: functional, cell-based
[20] = system: SK-MM-2; test: Cytotoxicity against human SKMM-2 cells assessed as growth inhibition after 48 hrs by MTT assay; format: functional, cell-based
[21] = system: OCI-AML2; test: Cytotoxicity against human OCI-AML2 cells after 72 hrs by MTS assay; format: functional, cell-based
[22] = system: XG6; test: Cytotoxicity against human XG6 cells assessed as growth inhibition at 10 uM after 48 hrs by MTT assay; format: functional, cell-based
[23] = system: DU-145; test: Cytotoxicity against human DU145 cells after 72 hrs by MTS assay; format: functional, cell-based
[24] = system: MDA-MB-468; test: Cytotoxicity against human MDA-MB-468 cells after 72 hrs by MTS assay; format: functional, cell-based; conditions: MDA-MB-468, 72 h
[25] = target: Signal transducer and activator of transcription 3 (Homo sapiens) (UniProt P40763); test: Inhibition of STAT3 phosphorylation in IL-6 stimulated human OPM2 cells at > IC50 after 30 mins by flow cytometry; format: cell-based; conditions: OPM-2
[26] = target: T1, Tyrosine-protein kinase JAK2 (Homo sapiens, UniProt O60674); test: Inhibition of JAK2 (unknown origin) at 50 uM after 20 mins
[27] = target: T2, Tyrosine-protein kinase JAK3 (Homo sapiens) (UniProt P52333); test: Inhibition of JAK3 (unknown origin) at 50 uM after 20 mins
T2 sequence (whole entry): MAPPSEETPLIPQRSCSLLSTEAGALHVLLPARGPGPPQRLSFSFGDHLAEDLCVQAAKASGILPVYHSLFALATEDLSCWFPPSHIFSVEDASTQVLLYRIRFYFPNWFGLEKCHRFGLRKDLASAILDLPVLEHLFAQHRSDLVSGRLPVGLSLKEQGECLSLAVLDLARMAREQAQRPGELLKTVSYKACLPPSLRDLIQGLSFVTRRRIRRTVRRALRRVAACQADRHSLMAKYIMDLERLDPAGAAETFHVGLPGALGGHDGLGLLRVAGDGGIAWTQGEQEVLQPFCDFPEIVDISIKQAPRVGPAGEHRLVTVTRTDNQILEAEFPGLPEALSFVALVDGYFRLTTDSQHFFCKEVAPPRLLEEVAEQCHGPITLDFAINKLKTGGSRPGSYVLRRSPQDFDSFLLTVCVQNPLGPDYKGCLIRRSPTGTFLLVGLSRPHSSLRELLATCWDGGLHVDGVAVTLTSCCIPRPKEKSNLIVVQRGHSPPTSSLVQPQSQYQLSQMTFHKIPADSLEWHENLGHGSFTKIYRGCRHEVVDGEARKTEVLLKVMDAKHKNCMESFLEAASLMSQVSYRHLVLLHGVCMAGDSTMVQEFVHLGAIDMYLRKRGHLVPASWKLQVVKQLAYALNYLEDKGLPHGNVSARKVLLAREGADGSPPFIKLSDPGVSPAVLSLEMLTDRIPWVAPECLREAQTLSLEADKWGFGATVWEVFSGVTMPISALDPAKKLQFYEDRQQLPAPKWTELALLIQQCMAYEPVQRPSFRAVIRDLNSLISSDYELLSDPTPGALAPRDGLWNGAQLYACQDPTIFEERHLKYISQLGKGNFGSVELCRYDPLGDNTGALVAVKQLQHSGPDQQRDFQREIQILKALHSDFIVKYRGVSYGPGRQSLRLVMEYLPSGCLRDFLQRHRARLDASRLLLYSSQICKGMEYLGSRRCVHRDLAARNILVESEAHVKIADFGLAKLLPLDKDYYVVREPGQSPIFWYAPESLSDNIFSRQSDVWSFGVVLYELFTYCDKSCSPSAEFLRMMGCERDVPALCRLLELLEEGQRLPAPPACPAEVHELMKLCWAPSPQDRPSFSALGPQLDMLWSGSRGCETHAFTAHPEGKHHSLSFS

[28] = target: Leukocyte tyrosine kinase receptor (Homo sapiens, UniProt P29376); test: Inhibition of TYK1 (unknown origin) after 20 mins
[29] = target: T3, Tyrosine-protein kinase JAK3 (Homo sapiens, UniProt P52333); test: Inhibition of JAK3 (unknown origin) after 20 mins
T3 sequence (P52333 whole entry): T2 sequence (whole entry)

[30] = target: T1, Tyrosine-protein kinase JAK2; test: Inhibition of JAK2 (unknown origin) after 20 mins

Signal transducer and activator of transcription 3 (Homo sapiens), sequence (P40763 whole entry, the tested form may be a part): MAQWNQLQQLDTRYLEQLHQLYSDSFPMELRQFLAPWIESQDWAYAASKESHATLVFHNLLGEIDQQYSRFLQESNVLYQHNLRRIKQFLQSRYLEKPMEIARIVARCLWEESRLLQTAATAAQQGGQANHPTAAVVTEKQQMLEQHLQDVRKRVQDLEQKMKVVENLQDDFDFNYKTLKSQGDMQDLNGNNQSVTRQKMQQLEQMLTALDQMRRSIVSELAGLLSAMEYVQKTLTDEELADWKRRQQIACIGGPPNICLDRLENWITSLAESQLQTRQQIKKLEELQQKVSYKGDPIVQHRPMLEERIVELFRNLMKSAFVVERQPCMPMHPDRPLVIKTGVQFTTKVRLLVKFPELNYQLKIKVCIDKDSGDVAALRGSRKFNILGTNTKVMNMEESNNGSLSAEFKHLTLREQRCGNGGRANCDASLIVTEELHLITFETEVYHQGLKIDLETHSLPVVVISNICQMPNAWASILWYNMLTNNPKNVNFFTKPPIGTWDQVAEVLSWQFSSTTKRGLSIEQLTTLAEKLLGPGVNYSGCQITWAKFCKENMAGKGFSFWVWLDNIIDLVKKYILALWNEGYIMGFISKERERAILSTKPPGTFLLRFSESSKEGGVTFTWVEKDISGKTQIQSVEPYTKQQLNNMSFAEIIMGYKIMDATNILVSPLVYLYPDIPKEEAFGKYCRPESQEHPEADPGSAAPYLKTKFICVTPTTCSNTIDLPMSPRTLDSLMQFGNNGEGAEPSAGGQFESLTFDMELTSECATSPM
T1 sequence (O60674 whole entry): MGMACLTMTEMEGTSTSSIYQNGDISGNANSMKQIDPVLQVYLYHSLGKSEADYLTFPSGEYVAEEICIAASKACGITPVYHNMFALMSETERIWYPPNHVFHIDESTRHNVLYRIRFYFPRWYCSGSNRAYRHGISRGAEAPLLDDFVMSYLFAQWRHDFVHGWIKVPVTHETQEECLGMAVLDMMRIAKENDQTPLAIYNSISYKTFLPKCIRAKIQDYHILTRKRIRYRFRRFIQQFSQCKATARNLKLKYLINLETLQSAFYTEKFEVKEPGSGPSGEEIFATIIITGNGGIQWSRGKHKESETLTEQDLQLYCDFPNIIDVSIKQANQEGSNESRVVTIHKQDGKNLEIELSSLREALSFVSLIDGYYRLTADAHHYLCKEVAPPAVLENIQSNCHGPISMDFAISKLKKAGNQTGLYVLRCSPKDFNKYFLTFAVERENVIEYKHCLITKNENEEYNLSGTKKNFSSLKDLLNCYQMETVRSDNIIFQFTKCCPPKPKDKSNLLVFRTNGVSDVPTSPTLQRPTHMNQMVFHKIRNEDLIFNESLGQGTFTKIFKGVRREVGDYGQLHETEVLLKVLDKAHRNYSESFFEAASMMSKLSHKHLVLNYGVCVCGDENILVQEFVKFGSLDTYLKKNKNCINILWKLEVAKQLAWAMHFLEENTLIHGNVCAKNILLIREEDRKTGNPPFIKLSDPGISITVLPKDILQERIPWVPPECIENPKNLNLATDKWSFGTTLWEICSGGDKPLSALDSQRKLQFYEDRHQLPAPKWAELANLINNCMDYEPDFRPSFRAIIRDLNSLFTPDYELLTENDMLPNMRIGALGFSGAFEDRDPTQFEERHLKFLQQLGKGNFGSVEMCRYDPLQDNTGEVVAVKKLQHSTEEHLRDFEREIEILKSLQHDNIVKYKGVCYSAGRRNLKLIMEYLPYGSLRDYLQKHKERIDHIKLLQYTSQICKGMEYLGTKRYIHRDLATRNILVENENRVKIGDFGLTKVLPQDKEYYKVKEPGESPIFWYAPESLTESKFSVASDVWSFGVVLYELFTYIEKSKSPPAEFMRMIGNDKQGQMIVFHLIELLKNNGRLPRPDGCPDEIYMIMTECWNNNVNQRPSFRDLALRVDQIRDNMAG
AP2-associated protein kinase 1 (Homo sapiens), sequence (Q2M2I8 whole entry, looked up): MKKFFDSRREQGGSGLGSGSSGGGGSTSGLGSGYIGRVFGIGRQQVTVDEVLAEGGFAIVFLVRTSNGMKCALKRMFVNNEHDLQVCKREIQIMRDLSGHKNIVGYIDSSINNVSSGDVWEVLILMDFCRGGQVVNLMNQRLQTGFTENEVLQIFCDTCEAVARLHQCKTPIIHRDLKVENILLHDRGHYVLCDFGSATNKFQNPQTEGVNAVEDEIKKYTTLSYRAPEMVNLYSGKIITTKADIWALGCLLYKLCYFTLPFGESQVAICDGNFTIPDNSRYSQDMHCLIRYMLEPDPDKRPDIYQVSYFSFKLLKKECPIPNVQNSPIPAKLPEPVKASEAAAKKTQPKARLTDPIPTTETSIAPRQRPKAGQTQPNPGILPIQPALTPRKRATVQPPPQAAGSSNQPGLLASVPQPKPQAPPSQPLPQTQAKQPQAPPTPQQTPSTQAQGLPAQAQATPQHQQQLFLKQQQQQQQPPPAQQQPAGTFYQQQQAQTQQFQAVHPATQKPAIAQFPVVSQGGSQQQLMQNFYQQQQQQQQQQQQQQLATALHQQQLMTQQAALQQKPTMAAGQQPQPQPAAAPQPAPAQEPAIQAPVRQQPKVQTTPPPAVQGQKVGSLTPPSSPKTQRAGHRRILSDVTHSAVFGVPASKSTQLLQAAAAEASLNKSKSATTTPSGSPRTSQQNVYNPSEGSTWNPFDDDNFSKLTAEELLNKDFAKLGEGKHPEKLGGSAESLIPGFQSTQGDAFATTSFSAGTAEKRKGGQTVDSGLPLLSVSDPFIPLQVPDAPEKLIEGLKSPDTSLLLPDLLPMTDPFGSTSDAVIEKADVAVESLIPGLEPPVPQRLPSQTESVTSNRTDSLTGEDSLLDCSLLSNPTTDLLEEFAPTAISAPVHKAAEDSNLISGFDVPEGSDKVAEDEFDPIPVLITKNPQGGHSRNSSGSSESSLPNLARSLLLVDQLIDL
Leukocyte tyrosine kinase receptor, sequence (P29376 whole entry): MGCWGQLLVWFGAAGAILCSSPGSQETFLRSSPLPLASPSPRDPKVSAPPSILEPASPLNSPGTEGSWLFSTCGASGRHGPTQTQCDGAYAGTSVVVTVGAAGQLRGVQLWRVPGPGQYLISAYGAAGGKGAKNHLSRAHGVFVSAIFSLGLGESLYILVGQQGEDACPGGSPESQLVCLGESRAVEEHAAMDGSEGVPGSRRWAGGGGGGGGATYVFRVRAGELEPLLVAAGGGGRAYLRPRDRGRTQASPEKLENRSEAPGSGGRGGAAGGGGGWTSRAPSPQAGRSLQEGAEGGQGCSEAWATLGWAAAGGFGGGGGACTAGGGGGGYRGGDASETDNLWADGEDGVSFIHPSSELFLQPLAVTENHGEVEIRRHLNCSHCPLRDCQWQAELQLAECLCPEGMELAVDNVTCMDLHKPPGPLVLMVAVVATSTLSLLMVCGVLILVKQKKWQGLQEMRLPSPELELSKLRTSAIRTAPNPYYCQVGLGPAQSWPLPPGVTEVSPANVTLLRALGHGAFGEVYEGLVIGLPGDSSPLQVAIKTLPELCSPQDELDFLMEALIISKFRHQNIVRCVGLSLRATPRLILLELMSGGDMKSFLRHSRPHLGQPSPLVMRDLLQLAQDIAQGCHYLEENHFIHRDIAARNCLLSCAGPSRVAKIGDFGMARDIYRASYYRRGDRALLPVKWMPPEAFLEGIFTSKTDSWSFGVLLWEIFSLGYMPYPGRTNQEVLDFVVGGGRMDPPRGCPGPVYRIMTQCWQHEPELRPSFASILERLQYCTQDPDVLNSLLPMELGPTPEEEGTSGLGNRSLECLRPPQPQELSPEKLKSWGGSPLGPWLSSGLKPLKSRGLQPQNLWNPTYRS
Tyrosine-protein kinase ABL1 (Homo sapiens), P00519 [F317L], sequence (P00519 whole entry F317L): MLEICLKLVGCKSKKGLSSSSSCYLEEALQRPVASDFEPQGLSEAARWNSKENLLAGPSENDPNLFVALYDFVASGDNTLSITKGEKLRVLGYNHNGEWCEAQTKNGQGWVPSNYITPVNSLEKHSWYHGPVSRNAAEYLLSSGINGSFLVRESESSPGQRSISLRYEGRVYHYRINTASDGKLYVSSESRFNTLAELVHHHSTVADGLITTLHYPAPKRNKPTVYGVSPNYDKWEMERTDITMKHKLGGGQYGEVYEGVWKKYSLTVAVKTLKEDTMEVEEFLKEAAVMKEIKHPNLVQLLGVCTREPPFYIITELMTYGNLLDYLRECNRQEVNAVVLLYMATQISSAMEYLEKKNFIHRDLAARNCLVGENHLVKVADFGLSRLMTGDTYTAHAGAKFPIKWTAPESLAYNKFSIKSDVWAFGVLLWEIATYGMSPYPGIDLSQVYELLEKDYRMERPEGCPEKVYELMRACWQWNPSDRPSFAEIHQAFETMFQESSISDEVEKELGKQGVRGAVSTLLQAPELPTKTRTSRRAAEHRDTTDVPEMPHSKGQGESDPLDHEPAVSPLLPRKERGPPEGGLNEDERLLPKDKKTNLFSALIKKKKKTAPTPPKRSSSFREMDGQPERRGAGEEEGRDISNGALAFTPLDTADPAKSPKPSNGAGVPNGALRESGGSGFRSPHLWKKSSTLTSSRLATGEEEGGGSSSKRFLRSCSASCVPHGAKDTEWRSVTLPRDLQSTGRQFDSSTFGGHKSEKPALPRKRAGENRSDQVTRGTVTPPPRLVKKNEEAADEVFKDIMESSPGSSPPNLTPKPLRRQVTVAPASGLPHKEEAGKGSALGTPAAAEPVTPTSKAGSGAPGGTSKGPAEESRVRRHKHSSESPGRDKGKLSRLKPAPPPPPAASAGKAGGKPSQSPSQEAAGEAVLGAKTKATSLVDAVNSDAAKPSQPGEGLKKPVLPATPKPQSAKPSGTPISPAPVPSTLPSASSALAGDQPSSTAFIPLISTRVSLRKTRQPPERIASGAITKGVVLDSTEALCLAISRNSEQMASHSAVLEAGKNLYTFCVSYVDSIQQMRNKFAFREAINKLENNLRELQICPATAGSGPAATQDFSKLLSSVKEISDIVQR

inhibition [13]: 52%
inhibition [14]: 50%
inhibition [15]: Active
inhibition [16]: inactive
inhibition [17]: inactive
inhibition [25]: inactive
inhibition [26]: 50%
inhibition [27]: 85%
IC50 [28]: 10.6 µM
IC50 [29]: 10.5 µM
IC50 [30]: 16.6 µM
Compound: NS(=O)(=O)OCCn1cnc2c(Nc3ccc(F)cc3)nc(NCc3ccc(C4CCCCC4)cc3)nc21
Activity [1]: 22.7%
Activity [2]: 23.2%
viability at 12.5 µM [3]: 1.98%
Activity [4]: 7.57%
Activity [5]: 74.4%
Activity [6]: 19.5%
Activity [7]: 38.8%
viability at 7.5 µM [8]: 64.5%
Activity [9]: 17.6%
Activity [10]: 16%
viability at 12.5 µM [11]: 36.4%
viability at 7.5 µM [12]: 53.8%
Activity [18]: Active
growth inhibition (GI) [19]: inactive
growth inhibition (GI) [20]: Active
Activity [21]: Active
growth inhibition (GI) [22]: Active
Activity [23]: Active
EC50 [24]: 19.9 µM
